Entries after “also recorded” stand apart in the source; their conditions may differ. Where no end group is shown, it is not given here.

One test deals with CETP. In words: CETP activity assay: human serum mixed with serum from vaccinated wild-type mice. To be noted: for inhibition of CETP activity in human serum (in words): FIGS. 15 to 17 and remarks in the example set-up table, sera of vaccinated mice; for CETP activity after addition of serum from vaccinated mice: FIG. 14, 0.6 μl human serum. In kind it is biochemical.
For another test, the system named is rabbit CETP. In words: Anti-protein ELISA of sera of immunised mice, plates coated with purified rabbit CETP. It is filed as in vivo, mouse. From the text: (§1) FIGS. 12a and 12b show the in vivo induction of CETP specific antibodies by the administration of the mimotopes of the invention. Titers to p4073 and its correlation to titers to CETP of selected groups (which show high titers against p4073): gr.4, gr.9, gr.10, gr.14, gr.16-20/gr.1 (KLH), gr.2 (original epitope) as controls. Coating: recombinant GST-CETP or purified rabbit CETP, respectively:
(§2) Sera of each group (5 Balb/c mice each) were combined, diluted 1:100 and tested on ELISA plates coated with recombinant GST-CETP or rabbit CETP, respectively. Detection of bound antibodies was with algG.
(§3) Titers to injected peptides as well as to the original CETP epitope were determined. In addition, for selected sera also immune response to CETP protein was measured (Results see FIGS. 7a to 7d and FIGS. 19a to 19e).
For orientation: ELISA stands for enzyme-linked immunosorbent assay.

The next test deals with recombinant GST-CETP. In words: Anti-protein ELISA of sera of immunised mice, plates coated with recombinant GST-CETP. It is filed as in vivo.
Excerpt: as §1, §2, §3

A further test deals with injected peptide-BSA. In words: Titer to the injected peptide in sera of immunised animals (peptide ELISA). It is filed as in vivo, mouse. To be noted: FIG. 11; Balb/c mice, 30 μg peptide, Alum as adjuvant; S3 = 2 weeks after 3rd injection; detection αIgG. The method, then: Balb/c mice/30 μg Peptide, 2 injections in 2 week intervals. S3=2 weeks after 3rd injection. Alum as adjuvant. […] Detection: αIgG:
(§4) Inhibiting as well as some non-inhibiting peptides were coupled to KLH and injected into mice (wildtype or CETP-transgenic mice; subcutaneously into the flank or intra-dermaly into the ears) or rabbits (subcutaneously into the flank) together with an appropriate adjuvant (aluminium hydroxide and Gerbu 100 for mice and aluminium hydroxide or CFA/IFA for rabbits).
as §3
Subcutaneous injections in the flank were performed in week 1, week 3 and week 7 with 30 μg peptide-KLH per mouse. Intradermal injections in the ear were performed in week 1, week 3 and week 6 with 10 μg peptide-KLH per mouse. Sera were taken 2 weeks after the 3rd injection. Vaccine formulation with Alum (always 1 mg per mouse): up to 250 μl, injected into one flank. The Alum formulation with 1 ml per mouse (500 μl into each flank) was in 1×PBS as buffer. […]

Another test deals with original epitope (p4073). In words: Titer to the original CETP epitope in sera of immunised animals (peptide ELISA). In kind it is in vivo, mouse. To be noted: FIG. 11; Balb/c mice, 30 μg peptide, Alum as adjuvant; S3; coating 1 μM p4073-BSA; detection αIgG. The method, then:
(§5) Balb/c mice/30 μg Peptide, 2 injections in 2 week intervals. S3=2 weeks after 3rd injection. Alum as adjuvant. Titers against original epitope (p4073) induced by injection of mimotopes. Well coating: 50 μl of 1 μM p4073-BSA or 1 μg/ml activated KLH. Detection: αIgG:
as §4, §3
(§6) Subcutaneous injections in the flank were performed in week 1, week 3 and week 7 with 30 μg peptide-KLH per mouse. Intradermal injections in the ear were performed in week 1, week 3 and week 6 with 10 μg peptide-KLH per mouse. Sera were taken 2 weeks after the 3rd injection. Vaccine formulation with Alum (always 1 mg per mouse): up to 250 μl, injected into one flank. The Alum formulation with 1 ml per mouse (500 μl into each flank) was in 1×PBS as buffer.
Vaccine formulation with Gerbu Adjuvant 100 (Gerbu Cat. Nr. #3100; always 50 μl adjuvant per mouse): 200 μl, 100 μl injected into each flank comprising 1×HEPES as buffer. […]

The test system of another test is irrelevant peptide-BSA. In words: Titer to irrelevant peptide in sera of immunised animals (peptide ELISA). It is filed as in vivo, mouse. To be noted: FIG. 11; Balb/c mice, 30 μg peptide, Alum as adjuvant; S3; detection αIgG. The method, then:
as §5, §6
Vaccine formulation with Gerbu Adjuvant 100 (Gerbu Cat. Nr. #3100; always 50 μl adjuvant per mouse): 200 μl, 100 μl injected into each flank comprising 1×HEPES as buffer.
Female Balb/c mice, five mice per group, were subcutaneously immunized with 30 μg peptide coupled to KLH. Control groups were administered KLH or C-[…] (SEQ ID NO. 147). As adjuvant alum was used. […] The in vitro ELISA assay to determine the antibody titer was performed with pooled sera after two vaccinations in a two week interval (S2; see FIGS. 7a to 7d). The wells of the ELISA plate were coated with KLH (positive control), mimotope-BSA conjugate, C-[…] (SEQ ID NO. 147) and a irrelevant peptide-BSA conjugate (negative control). The detection was performed with anti-mouse IgG.

[1] abbreviates: FIG. 13, combined sera of 5 Balb/c mice, diluted 1:100.
Setting [2] is: FIG. 12b, sera of immunised mice, purified rabbit CETP.
[3] abbreviates: FIG. 12b, sera of immunised mice.

For the substance “p4362-KLH/Alum: C-FGFPAHVYIDWLQSLS coupled to KLH, Alum (CFGFPAHVYIDWLQSLS; also: coupled to KLH)”, in the test with CETP, the “inhibition of CETP activity in human serum (in words)” value (“inhibition of CETP activity” below) is listed as “inhibits significantly CETP activity”. The “ELISA signal, rabbit CETP” value with rabbit CETP (setting [1]) is 0.94. In the test on recombinant GST-CETP (setting [1]), the “ELISA signal, recombinant GST-CETP” value amounted to 0.86.

Consider “p4343-KLH: C-FYFPAHVSIDWLQSLS coupled to KLH (CFYFPAHVSIDWLQSLS; also: coupled to KLH)”, for which, in the test with injected peptide-BSA, the “titer, injected peptide-BSA” value stood at 5.580. In addition, in the test on CETP, the “inhibition of CETP activity” value is listed as “C-33: recogn. protein/not in-”. For the same substance, in the test on original epitope (p4073), the “titer, original epitope-BSA” value stood at 2.900. In addition, the “titer, irrelevant peptide-BSA” value with irrelevant peptide-BSA is on record as 10. For the same substance, in the test on rabbit CETP (setting [2]), the “ELISA signal, rabbit CETP” value was 1.05. Moreover, in the test with recombinant GST-CETP (setting [3]), the “ELISA signal, recombinant GST-CETP” value was found to be 0.61.

Regarding “p4361-KLH: C-FGFPAHVFIDWLQSLS coupled to KLH (CFGFPAHVFIDWLQSLS; also: coupled to KLH)”, the “titer, injected peptide-BSA” value in the test with injected peptide-BSA is recorded as 17.940. Moreover, the “CETP activity after addition of serum from vaccinated mice” value with CETP (0.2 μl mouse serum) is “reduces significantly said activity”; in the test with CETP (1.2 μl and 0.6 μl mouse serum), “completely inhibits CETP activity”. In addition, in the test on CETP, the “inhibition of CETP activity” value is reported as “inhibits significantly CETP activity”. For the same substance, in the test with original epitope (p4073), the “titer, original epitope-BSA” value was determined as 9.530. Also, in the test on irrelevant peptide-BSA, the “titer, irrelevant peptide-BSA” value is reported as 10. In the test with rabbit CETP (FIG. 12a, sera of immunised mice, purified rabbit CETP), the “ELISA signal, rabbit CETP” value stood at 1.51. Besides, the “ELISA signal, recombinant GST-CETP” value in the test on recombinant GST-CETP (FIG. 12a, sera of immunised mice) was found to be 1.64.

As for “p4325-KLH: C-FGFPSHLIIDWLQSLS coupled to KLH (CFGFPSHLIIDWLQSLS; also: coupled to KLH)”, in the test on injected peptide-BSA, the “titer, injected peptide-BSA” value is given as 2.930. In the test on CETP (listed as p4325-KLH/Alum), the “inhibition of CETP activity” value was “inhibits significantly CETP activity; also recorded: C-31 and C-33; sera inhibiting”. Further, the “titer, original epitope-BSA” value in the test with original epitope (p4073) came out at 1.820. Moreover, in the test on irrelevant peptide-BSA, the “titer, irrelevant peptide-BSA” value worked out at 10. The “ELISA signal, rabbit CETP” value in the test with rabbit CETP (setting [2]) amounted to 0.85. Also, the “ELISA signal, recombinant GST-CETP” value in the test with recombinant GST-CETP (setting [3]) is 0.59.

The values above are taken from US8618046B2, “Treatment of atherosclerosis with cholesterol ester transport protein mimotopes” (Affiris AG, priority 2007, dated 2013).
